Patent publication US9629894B2, “Magnesium-containing oxytocin formulations and methods of use” (Trigemina, Inc., priority 2015, dated 2017)

What was measured:
[1] = system: rat model of facial thermal nociception; assay: Rat model of facial thermal nociception: cheek withdrawal latency to radiant heat after nasal administration; assay type: in vivo; details: for analgesic effect (elevation in latency to withdrawal): 15-300 min
Procedure: The heat from a projector lamp was focused on the pre-shaved cheek of rats and the intensity was varied to obtain a withdrawal response with a latency of between 6.5 and 8.5 seconds. The intensity applied to achieve such latencies was recorded for each animal. Once stable/acceptable baseline values were obtained, the average latencies for each rat were calculated. After baseline cheek withdrawal latencies were determined for all rats, each rat received a single nasal administration of either normal saline, 15% magnesium chloride in water, or 1% magnesium lactate in water according to the method developed by Frey (Thorne, et al. Neuroscience., 127: 481-496 (2004)). Briefly, rats (under urethane anesthesia) were placed in a supine position with a rolled pad (2×2 gauze) inserted under the dorsal neck to extend the head back toward the supporting surface. The upper surface of the neck was kept horizontal throughout the dosing procedure to maintain the drug solution in the nasal cavity and minimize dripping down the nasopharynx. A 6 μL drop of the respective drug solution was delivered off the tip of a small pipette and presented to the nares on the left side of the rat while occluding the opposite nares. One drop was administered every 2 minutes, alternating between each nares (thus amounting to a four minute interval between doses to the same nares). Each nostril received 4 drops, totaling a combined volume of 48 μL (8 drops of 6 μL each). Drug solutions were coded in order to keep the experimenter blinded as to the substances delivered. Left cheek withdrawal latencies in response to radiant heat stimulation were then measured over the next 3 hours. Withdrawal latencies were measured prior to nasal administration and at 1, 2, and 3 hours post-treatment.
One of 4 concentrations of dibasic magnesium citrate (1:1 Mg/citrate) was applied to rats and the effects of these applications on responses to noxious thermal stimulation of the face were assessed as described above. Each rat received a single nasal administration of 3, 6, 10, or 12% magnesium citrate in water (6 rats/group) according to the method described above. Left cheek withdrawal latencies in response to radiant heat stimulation were then measured over the following 300 minutes. Withdrawal latencies were measured prior to nasal administration and at 15, 30, 45, 60, 120, 180, 240, and 300 min post-treatment.
One of 3 doses of oxytocin in buffered saline was applied to rats and the effects of these applications on responses to noxious thermal stimulation of the face were assessed as described above. Each rat received a single nasal administration of 1, 4, or 8 μg oxytocin in aqueous solution (6 rats/group) according to the method described above. Left cheek withdrawal latencies in response to radiant heat stimulation were then measured over the following 300 minutes. Withdrawal latencies were measured prior to nasal administration and at 15, 30, 45, 60, 120, 180, 240, and 300 min post-treatment.
Aqueous solutions containing a combination of magnesium citrate at one of 3 concentrations with oxytocin at one of 3 doses were applied nasally in rats and changes in withdrawal response latency were measured as above. Each rat received a single nasal administration of 1, 4, or 8 μg of oxytocin in aqueous solution containing 3, 6, or 12% magnesium citrate according to the method described above. Left cheek withdrawal latencies in response to radiant heat stimulation were then measured over the following 300 minutes. Withdrawal latencies were measured prior to nasal administration and at 15, 30, 45, 60, 120, 180, 240, and 300 min post-treatment.
Difference scores were generated for each time point after dosing by comparing the respective withdrawal response latency to pre-dosing (baseline) values.

[2] = system: rat paw inflammation model; assay: Rat paw inflammation model (complete Freund's adjuvant in forepaw), force withdrawal threshold to mechanical stimulation; assay type: in vivo; details: nasal, FIG. 8
Procedure: The analgesic effect of nasally administered oxytocin on cervical nerve-associated inflammatory pain was assessed in a rat paw inflammation model (Martin et al., Pain 1999, 82:199-205). Oxytocin was nasally administered at one of three doses (193, 385 or 768 micrograms in 48 microliters) and force withdrawal thresholds in grams were determined following mechanical stimulation of the inflamed area (forepaw), at regular intervals over the next three hours, and compared against those of vehicle (phosphate buffered saline) treated rats. Injection of complete Freund's adjuvant into the left forepaw of rats produced a robust inflammation of that paw as well as a substantial decrease in the force necessary to elicit a withdrawal response (mechanical allodynia).

[3] = system: head, neck and shoulder pain; assay: Patient with chronic tension-type headache with head, neck and shoulder pain, oxytocin nasal sprays; assay type: in vivo, human
Text: A patient with chronic tension-type headache reported having intense pain in their head, neck and shoulders. The patient took 4 sprays of 7.5 IU/spray oxytocin for a dose of 30 units, at which point their headache pain was gone, but the neck and shoulder pain remained. […] Thus, a higher dose was necessary to affect neck and shoulder pain than was necessary to inhibit head pain in the same patient.

[4] = 4 sprays of 7.5 IU/spray oxytocin, dose of 30 units

`CC(O)C(=O)[O-].CC(O)C(=O)[O-].[Mg+2]` (centres unmarked) [magnesium lactate] was tested, and the “analgesic effect (withdrawal latency)” value ([1]; 1% magnesium lactate in water, nasal, rats) was “mild analgesic effect”, the “latencies at the 2 and 3 hour time points” value ([1]; 1% magnesium lactate in water, nasal, rats, 2 and 3 hours) was “still substantially elevated” and the “raising response latencies (withdrawal latency to noxious heat)” value ([1]; 1% magnesium lactate in water, single nasal administration 48 μL, rats) was “approximately 1.5 s”.
In the case of `[Cl-].[Cl-].[Mg+2]` [magnesium chloride], the “analgesia at 2 and 3 hours after dosing” value ([1]; 15% magnesium chloride in water, nasal, 2 and 3 hours) is reported as “analgesia continuing” and the “analgesic effect compared to nasal saline treated rats” value ([1]; 15% magnesium chloride in water, nasal, 1 hour) is reported as “strong analgesic effect”.
`CC[C@H](C)[C@@H]1NC(=O)[C@H](Cc2ccc(O)cc2)NC(=O)[C@@H](N)CSSC[C@@H](C(=O)N2CCC[C@H]2C(=O)N[C@@H](CC(C)C)C(=O)NCC(N)=O)NC(=O)[C@H](CC(N)=O)NC(=O)[C@H](CCC(N)=O)NC1=O` [oxytocin, Cys-Tyr-Ile-Gln-Asn-Cys-Pro-Leu-Gly] was tested, and the withdrawal latency ([1]; 1 μg oxytocin, nasal) was “no increase”, the “analgesic effect (elevation in latency to withdrawal)” value ([1]; 1, 4 or 8 μg oxytocin in aqueous solution, nasal, FIG. 3) was “clear dose-dependent analgesic effect” and the “latency to withdrawal in response to noxious cheek heating” value ([1]; 4 and 8 μg oxytocin, nasal) was “robust increase in latency to withdrawal”. For the same molecule, the “reversal of the mechanical allodynia resulting from inflammation” value ([2]; higher 2 doses, 385 or 768 micrograms in 48 microliters) was “statistically significant partial reversal”, the “increasing pain thresholds (force withdrawal threshold)” value ([2]; lowest dose, 193 micrograms in 48 microliters) was “ineffective” and the headache pain [3, 4] was “gone”. The “neck and shoulder pain” value [3, 4] was “remained” and the “neck and shoulder pain” value ([3]; additional 8-10 sprays, or a total of 60-75 IU) was “receded and ceased”.
In the case of magnesium citrate, the “analgesic effect (elevation in latency to withdrawal)” value ([1]; 3, 6, 10 or 12% magnesium citrate in water, nasal, FIG. 2) is reported as “clear dose-dependent analgesic effect”.
